Laboratory results as given in patent US11661431B2, “Thienopyrrole compounds” (Gilead Sciences, Inc., priority 2021, dated 2023).

Experiments:
TLR7 = TLR7 (Homo sapiens (Human), UniProt Q9NYK1); experiment: TLR7 human peripheral blood mononuclear cell (PBMC) cell-based assay (GS-986 as agonist; IL-6 and IFNα readout); conditions: human PBMCs, TLR7 agonist GS-986 at 400 nM, 6 hours, antagonist potency; read-out: TLR-7 EC50
Outline: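 Human PBMCs (100,000 cells/well) preincubated 1 h at 37 °C with antagonist in 10-point dose response, then stimulated with TLR7 agonist for a further 6 h at 37 °C, 5% CO2. Supernatant IL-6 and IFNα measured by electrochemiluminescence immunoassay.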

TLR8 = TLR8 (Homo sapiens (Human), UniProt Q9NR97); experiment: TLR8 human peripheral blood mononuclear cell (PBMC) cell-based assay (Compound A as agonist; TNFα and IL12p40 readout); conditions: human PBMCs, TLR8 agonist Compound A at 800 nM, 6 hours, antagonist potency; read-out: TLR-8 EC50
Sequence of TLR8 (Q9NR97 27-1041): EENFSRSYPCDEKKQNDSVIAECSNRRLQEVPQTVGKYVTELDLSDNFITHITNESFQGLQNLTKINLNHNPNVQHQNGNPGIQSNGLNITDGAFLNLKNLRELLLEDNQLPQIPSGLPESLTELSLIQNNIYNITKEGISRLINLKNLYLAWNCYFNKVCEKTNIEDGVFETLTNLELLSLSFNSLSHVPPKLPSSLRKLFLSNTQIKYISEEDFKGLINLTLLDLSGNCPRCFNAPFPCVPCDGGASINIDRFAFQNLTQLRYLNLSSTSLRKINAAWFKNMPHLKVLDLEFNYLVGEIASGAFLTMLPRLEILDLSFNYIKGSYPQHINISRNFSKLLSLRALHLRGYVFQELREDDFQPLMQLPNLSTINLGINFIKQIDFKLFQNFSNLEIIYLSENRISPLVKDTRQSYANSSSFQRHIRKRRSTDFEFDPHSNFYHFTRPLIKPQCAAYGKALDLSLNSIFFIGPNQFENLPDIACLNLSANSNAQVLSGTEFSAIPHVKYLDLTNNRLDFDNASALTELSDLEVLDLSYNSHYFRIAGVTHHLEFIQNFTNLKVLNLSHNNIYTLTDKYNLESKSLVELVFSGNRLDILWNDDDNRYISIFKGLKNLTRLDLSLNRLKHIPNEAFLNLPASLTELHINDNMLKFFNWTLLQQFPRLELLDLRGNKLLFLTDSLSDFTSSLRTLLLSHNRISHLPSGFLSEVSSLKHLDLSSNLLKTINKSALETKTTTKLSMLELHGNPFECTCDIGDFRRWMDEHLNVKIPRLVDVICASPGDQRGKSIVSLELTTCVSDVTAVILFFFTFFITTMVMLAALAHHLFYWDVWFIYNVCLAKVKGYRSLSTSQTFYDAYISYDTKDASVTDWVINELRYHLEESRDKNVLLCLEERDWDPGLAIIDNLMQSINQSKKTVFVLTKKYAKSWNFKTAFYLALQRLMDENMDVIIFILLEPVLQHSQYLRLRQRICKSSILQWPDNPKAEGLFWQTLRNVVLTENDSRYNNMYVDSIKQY

Sequence of TLR7 (Q9NYK1 27-1049): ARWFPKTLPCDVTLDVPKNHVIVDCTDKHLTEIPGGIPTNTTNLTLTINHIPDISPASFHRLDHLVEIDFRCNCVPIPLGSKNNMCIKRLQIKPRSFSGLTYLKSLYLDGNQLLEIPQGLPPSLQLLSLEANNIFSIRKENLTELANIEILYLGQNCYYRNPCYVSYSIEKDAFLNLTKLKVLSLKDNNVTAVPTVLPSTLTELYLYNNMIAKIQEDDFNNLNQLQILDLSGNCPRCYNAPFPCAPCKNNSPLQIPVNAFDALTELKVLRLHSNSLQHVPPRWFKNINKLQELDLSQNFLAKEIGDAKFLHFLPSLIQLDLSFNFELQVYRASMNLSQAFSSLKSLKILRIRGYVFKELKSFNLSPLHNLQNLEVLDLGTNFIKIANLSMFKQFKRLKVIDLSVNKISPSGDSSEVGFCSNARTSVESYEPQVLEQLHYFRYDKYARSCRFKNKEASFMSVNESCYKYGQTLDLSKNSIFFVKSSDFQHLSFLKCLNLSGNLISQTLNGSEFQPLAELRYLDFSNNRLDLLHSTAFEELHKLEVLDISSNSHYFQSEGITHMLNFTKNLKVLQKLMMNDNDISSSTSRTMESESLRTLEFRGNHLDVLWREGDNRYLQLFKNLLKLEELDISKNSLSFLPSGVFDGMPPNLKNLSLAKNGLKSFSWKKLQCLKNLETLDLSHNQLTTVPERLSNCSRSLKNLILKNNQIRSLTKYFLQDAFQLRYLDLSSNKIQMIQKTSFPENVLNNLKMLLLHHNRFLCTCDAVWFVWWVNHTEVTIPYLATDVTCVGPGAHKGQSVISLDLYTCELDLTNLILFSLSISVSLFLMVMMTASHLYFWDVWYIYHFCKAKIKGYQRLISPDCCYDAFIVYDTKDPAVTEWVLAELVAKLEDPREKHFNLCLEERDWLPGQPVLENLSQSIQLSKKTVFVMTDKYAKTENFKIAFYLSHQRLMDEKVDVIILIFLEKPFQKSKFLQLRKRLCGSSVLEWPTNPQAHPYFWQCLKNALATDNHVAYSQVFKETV

| SMILES | EC50 (TLR7) [nM] | EC50 (TLR8) [nM] |
| --- | --- | --- |
| Cc1c(C2CCN(C(=O)[C@@H]3COCCN3)CC2)sc2[nH]c(-c3cc(C)c4ncnn4c3)c(C(C)C)c12 [Example 36] | 0.54 | 20.8 |
| Cc1c(C2CCC3(CC2)CN(C(=O)[C@@H]2CCCN2)C3)sc2[nH]c(-c3cc(C)c4ncnn4c3)c(C(C)C)c12 [Example 37] | 0.2 | 9.95 |
| Cc1c(C2CCC3(CC2)CN(C(=O)[C@H]2CCCN2)C3)sc2[nH]c(-c3cc(C)c4ncnn4c3)c(C(C)C)c12 [Example 38] | 0.22 | 10.4 |
| Cc1c(C2CCN(C(=O)[C@H]3CC(F)(F)CN3)CC2)sc2[nH]c(-c3cc(C)c4ncnn4c3)c(C(C)C)c12 [Example 39] | 1.18 | 125 |
| Cc1c(C2CCN(C(=O)C34CC(CN3)C4)CC2)sc2[nH]c(-c3cc(C)c4ncnn4c3)c(C(C)C)c12 [Example 40] | 0.07 | 3.14 |
| Cc1c(C2CCN(C(=O)C34CC(F)(CN3)C4)CC2)sc2[nH]c(-c3cc(C)c4ncnn4c3)c(C(C)C)c12 [Example 41] | 0.35 | 12.3 |
| Cc1c(C2CCN(C(=O)[C@H]3C[C@@H](F)CN3)CC2)sc2[nH]c(-c3cc(C)c4ncnn4c3)c(C(C)C)c12 [Example 42] | 0.78 | 25.7 |
| Cc1c(C2CCN(C(=O)[C@H]3C[C@H](F)CN3)CC2)sc2[nH]c(-c3cc(C)c4ncnn4c3)c(C(C)C)c12 [Example 43] | 0.32 | 19 |
| CO[C@H]1CN[C@@H](C(=O)N2CCC(c3sc4[nH]c(-c5cc(C)c6ncnn6c5)c(C(C)C)c4c3C)CC2)C1 [Example 44] | 0.37 | 13.1 |
| CO[C@@H]1CN[C@@H](C(=O)N2CCC(c3sc4[nH]c(-c5cc(C)c6ncnn6c5)c(C(C)C)c4c3C)CC2)C1 [Example 45] | 0.13 | 15.6 |
| Cc1c(C2CCN(C(=O)[C@H]3CNCCO3)CC2)sc2[nH]c(-c3cc(C)c4ncnn4c3)c(C(C)C)c12 [Example 46] | 0.59 | 13 |
| Cc1c(C2CCN(C(=O)[C@@H]3CNCCO3)CC2)sc2[nH]c(-c3cc(C)c4ncnn4c3)c(C(C)C)c12 [Example 47] | 0.24 | 14.1 |
| Cc1c(C2CCN(C(=O)[C@H]3COCCN3C)CC2)sc2[nH]c(-c3cc(C)c4ncnn4c3)c(C(C)C)c12 [Example 48] | 0.29 | 19.7 |
| Cc1c(C2CCN(C(=O)[C@@H]3COCCN3C)CC2)sc2[nH]c(-c3cc(C)c4ncnn4c3)c(C(C)C)c12 [Example 49] | 1.12 | 27.9 |
| Cc1c(C2CCN(C(=O)CN3CCOCC3)CC2)sc2[nH]c(-c3cc(C)c4ncnn4c3)c(C(C)C)c12 [Example 50] | 1.76 | 35.9 |
| Cc1c(C2CCN(C(=O)C3(C)COCCN3)CC2)sc2[nH]c(-c3cc(C)c4ncnn4c3)c(C(C)C)c12 (centres unmarked) [Example 51] | 0.43 | 19.3 |
| Cc1c(-c2[nH]c3sc(C4CC5(C4)CN(C(=O)[C@H]4COCCN4)C5)c(C)c3c2C(C)C)cn2ncnc2c1C [Example 52] | 2.08 | 1.12 |
| Cc1c(C2CC3(C2)CN(C(=O)[C@H]2COCCN2)C3)sc2[nH]c(-c3cc(C)c4ncnn4c3)c(C(C)C)c12 [Example 53] | 0.27 | 2.42 |
| Cc1c(C2CCN(C(=O)C3COCC(C)(C)N3)CC2)sc2[nH]c(-c3cc(C)c4ncnn4c3)c(C(C)C)c12 (centres unmarked) [Example 54] | 0.59 | 19.8 |
| Cc1c(C2CCN(C(=O)C34COC(CN3)C4)CC2)sc2[nH]c(-c3cc(C)c4ncnn4c3)c(C(C)C)c12 (centres unmarked) [Example 55] | 0.23 | 16.6 |
| Cc1cc(-c2[nH]c3sc(C4CCN(C(=O)[C@H]5COCCN5)CC4)cc3c2C(C)C)cn2ncnc12 [Example 57] | 0.27 | 15.5 |
| Cc1c(C2CC3(CNC3)C2)sc2[nH]c(-c3cc(C)c4ncnn4c3)c(C(C)C)c12 [Example 58, 4-isopropyl-3-methyl-5-(8-methyl-[1,2,4]triazolo[1,5-a]pyridin-6-yl)-2-(2-azaspiro[3.3]heptan-6-yl)-6H-thieno[2,3-b]pyrrole] | 0.24 | 1.74 |
